The text below walks through data of patent US10214492B2, “Heterocyclic inhibitors of MCT4” (Vettore, LLC, priority 2016, dated 2019).

In one series the target is MCT1 (Homo sapiens (Human), UniProt P53985). The series is described as follows: Assay 4: MCT1-mediated lactate transport in BT20 breast cancer cells. The format is cell-based. Conditions: Table 27. The procedure, abridged:
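BT20 cells loaded with BCECF-AM (30 mM DMSO stock) for 5 min at 37° C, washed and resuspended in Tyrode's Solution pH 7.4. Lactate uptake tracked via BCECF intracellular pH signal after adding 10 mM L-lactate.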

Series [1] in a line: Metabolic stability in rat liver microsomes (in vitro t1/2). In kind it is in vitro ADME. The note with it: for half-life at 2 µM: read-out: Rat microsome t1/2, min; for Rat microsome % 60 min: rat liver microsomes. As to the method: The following are assays that may be used to evaluate the metabolic stability of compounds of Formula (I) in human, rat, or mouse microsomes. The assays follow a common procedure recited below. 1. […] Two separated experiments were performed as follows. a) With NADPH: 10 μL of 20 mg/mL liver microsomes and 40 μL of 10 mM NADPH were added to the incubations. […] The final concentration of microsomes was 0.5 mg/mL. 3. The reaction was started with the addition of 4 μL of 200 μM control compound or test compound solutions. Verapamil was used as positive control in this study. The final concentration of test compound or control compound was 2 μM. 4. Aliquots of 50 μL were taken from the reaction solution at 0, 15, 30, 45 and 60 min. […] Samples were centrifuged at 3,220 g for 40 minutes. A 90 μL aliquot of the supernatant was mixed with 90 μL of ultra-pure H2O and then used for LC-MS/MS analysis. 5. Data analysis. All calculations were carried out using Microsoft Excel. Peak areas were determined from extracted ion chromatograms. The slope value, k, was determined by linear regression of the natural logarithm of the remaining percentage of the parent drug vs. incubation time curve. The in vitro half-life (in vitro t1/2) was determined from the slope value: in vitro t1/2=−(0.693)/k.
For orientation: Liver microsomes are vesicles of endoplasmic reticulum, rich in cytochrome P450 enzymes.

Series [2] is described as follows: Metabolic stability in mouse liver microsomes (in vitro t1/2). The format is in vitro ADME. Conditions: for half-life at 2 µM: read-out: Mouse microsome t1/2, min; for Mouse microsome % 60 min: mouse liver microsomes. The procedure, abridged: (§1)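 Liver microsomes (0.5 mg/mL final) incubated with test compound at 2 μM final plus NADPH; samples taken at 0, 15, 30, 45 and 60 min. Parent remaining quantified by LC-MS/MS; k from ln(% remaining) vs time regression, in vitro t1/2 = −0.693/k.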

The nature of series [3]: Metabolic stability in human liver microsomes (in vitro t1/2). The format is in vitro ADME. The note with it: for half-life at 2 µM: read-out: Human microsome t1/2, min; for Human microsome % 60 min: human liver microsomes. The procedure, abridged: as §1
Series [4] in a line: Pharmacokinetic assay in mouse (IV 3 mg/kg, PO 10 mg/kg). The format is in vivo. The note with it: Male CD1 mouse; for Mouse F: oral bioavailability; for Mouse F / half-life: PO 10 mg/kg; for half-life / Vd: plasma; for half-life: read-out: Mouse t1/2 (converted); for Vd: volume of distribution, read-out: Mouse Vss. The text has this: (§2) The following are assays that may be used to evaluate the pharmacokinetic properties of Formula (I) in mouse or rat. The assays follow a common procedure recited below.
(§3) 1. […] For PO (oral gavage), DMSO/PEG400 (10:90). Formulations freshly prepared on the day of dosing or prior to dosing. Storage at room temperature.
(§4) 2. Test Species: For Mouse: Male CD1 strain, approximately 6-8 weeks in age, approximately 20-30 g. For Rat: Male Sprague-Dawley strain, approximately 6-8 weeks in age, approximately 200-300 g.
(§5) 3. Dose Level: For IV, 3 mg/kg. For PO, 10 mg/kg.
(§6) 4. Number of animals: 3 per assay.
(§7) 5. PK time points: For IV (plasma): 5 min, 15 min, 1, 2, 4, 6, 8, 24 h post dose. For PO (plasma): 15 min, 30 min, 1, 2, 4, 6, 8, 24 h post dose.
(§8) 6. Blood Sample Collection and Processing. Blood was collected (˜0.2 mL per time point) from jugular vein. Blood of each sample was transferred into plastic micro centrifuge tubes containing anticoagulant of EDTA-K2. Blood samples were centrifuged at 2,000 g for 5 minutes at 4° C. to obtain plasma.
(§9) 7. Samples Analysis: Plasma samples were analyzed using LC/MS/MS method, and pharmacokinetic parameters (half-life: t1/2; oral bioavailability: F; volume of distribution: Vss).

In a further series the target is MCT4 (Homo sapiens (Human), UniProt O15427). The series is described as follows: Assay 3: MCT4-mediated lactate transport in MDA-MB-231 breast cancer cells. In kind it is cell-based. The note with it: MDA-MB-231 cells; lactate transport. The procedure, abridged:
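MDA-MB-231 cells loaded with BCECF-AM, 5 min at 37° C, washed and resuspended in Tyrode's Solution, pH 7.4. MCT4 lactate/proton symport followed as the intracellular pH change reported by BCECF fluorescence.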

The nature of series [5]: Pharmacokinetic assay in rat (IV 3 mg/kg, PO 10 mg/kg). In kind it is in vivo. The note with it: Male Sprague-Dawley rat; for Rat F: oral bioavailability; for Rat F / half-life: PO 10 mg/kg; for half-life / Vd: plasma; for half-life: read-out: Rat t1/2 (converted); for Vd: volume of distribution, read-out: Rat Vss.
Excerpt: as §2, §3, §4, §5, §6, §7, §8, §9

The mark [6] stands for this setting: rat liver microsomes 0.5 mg/mL, 2 μM compound.
Where [7] appears, read: mouse liver microsomes 0.5 mg/mL, 2 μM compound.
[8] abbreviates: human liver microsomes 0.5 mg/mL, 2 μM compound.

Sequence of MCT4 (O15427 whole entry, looked up): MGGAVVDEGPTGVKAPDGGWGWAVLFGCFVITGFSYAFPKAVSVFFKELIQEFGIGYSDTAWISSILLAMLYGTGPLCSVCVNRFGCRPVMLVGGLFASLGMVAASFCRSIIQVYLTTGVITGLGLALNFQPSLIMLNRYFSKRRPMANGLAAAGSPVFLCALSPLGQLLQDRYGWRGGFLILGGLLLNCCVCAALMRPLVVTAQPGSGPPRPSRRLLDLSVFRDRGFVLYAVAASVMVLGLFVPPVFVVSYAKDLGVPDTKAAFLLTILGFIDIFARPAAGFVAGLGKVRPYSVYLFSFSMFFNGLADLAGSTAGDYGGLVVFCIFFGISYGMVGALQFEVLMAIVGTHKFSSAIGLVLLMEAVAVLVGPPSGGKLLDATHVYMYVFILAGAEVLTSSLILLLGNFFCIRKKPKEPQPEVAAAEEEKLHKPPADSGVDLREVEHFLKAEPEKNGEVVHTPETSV
Sequence of MCT4 (P35613 whole entry partner, looked up): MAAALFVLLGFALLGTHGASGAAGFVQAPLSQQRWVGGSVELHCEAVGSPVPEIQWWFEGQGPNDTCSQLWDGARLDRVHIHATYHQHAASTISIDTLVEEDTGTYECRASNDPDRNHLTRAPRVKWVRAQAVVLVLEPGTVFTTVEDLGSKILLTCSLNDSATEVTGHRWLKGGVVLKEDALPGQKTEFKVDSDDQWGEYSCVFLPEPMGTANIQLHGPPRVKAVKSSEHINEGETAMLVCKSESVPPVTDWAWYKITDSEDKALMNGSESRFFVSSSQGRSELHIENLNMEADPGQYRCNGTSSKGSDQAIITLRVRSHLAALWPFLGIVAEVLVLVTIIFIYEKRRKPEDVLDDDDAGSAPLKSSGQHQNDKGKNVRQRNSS
Sequence of MCT1 (P53985 whole entry): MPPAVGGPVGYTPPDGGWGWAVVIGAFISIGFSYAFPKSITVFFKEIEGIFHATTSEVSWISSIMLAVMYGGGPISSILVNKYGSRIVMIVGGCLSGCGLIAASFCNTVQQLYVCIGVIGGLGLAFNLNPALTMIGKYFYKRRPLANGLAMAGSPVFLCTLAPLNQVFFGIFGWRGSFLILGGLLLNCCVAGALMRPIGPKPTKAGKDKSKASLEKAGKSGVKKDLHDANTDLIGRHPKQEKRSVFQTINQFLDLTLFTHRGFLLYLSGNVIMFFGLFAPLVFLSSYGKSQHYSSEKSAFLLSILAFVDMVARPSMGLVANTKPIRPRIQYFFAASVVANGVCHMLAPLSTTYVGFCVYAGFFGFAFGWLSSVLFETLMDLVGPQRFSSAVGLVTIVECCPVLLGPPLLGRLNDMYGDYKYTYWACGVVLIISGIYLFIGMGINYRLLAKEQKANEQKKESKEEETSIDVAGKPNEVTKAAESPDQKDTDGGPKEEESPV
Sequence of MCT1 (P35613 140-385 partner): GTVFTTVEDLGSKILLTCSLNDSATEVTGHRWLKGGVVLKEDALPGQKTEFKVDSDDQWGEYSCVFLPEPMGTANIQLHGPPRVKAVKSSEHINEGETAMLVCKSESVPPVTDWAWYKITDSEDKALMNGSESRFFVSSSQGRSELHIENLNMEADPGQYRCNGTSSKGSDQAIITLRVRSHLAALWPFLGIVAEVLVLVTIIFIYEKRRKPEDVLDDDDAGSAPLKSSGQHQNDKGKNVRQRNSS

As to `Cn1ncc2cccc(-n3nc(COC(C)(C)C(=O)O)cc3-c3cccc(OCC(C)(C)C)c3)c21` [Example 167, 2-([5-[3-(2,2-dimethylpropoxy)phenyl]-1-(1-methyl-1H-indazol-7-yl)-1H-pyrazol-3-yl]-methoxy)-2-methylpropanoic acid], the 50% inhibitory concentration (IC50) at MCT1 worked out at 36000 nM; at MCT4 it was 0.59 nM. The half-life at 2 µM was determined as 1.23 h in series [1] (setting [6]), 7.17 h in series [2] (setting [7]) and 4.17 h in series [3] (setting [8]). The “Rat microsome % 60 min” value in series [1] came to 72%. In series [2], the “Mouse microsome % 60 min” value was 97%. The “Human microsome % 60 min” value in series [3] was 84%. In addition, the “Mouse F” value in series [4] is on record as 24%. Besides, the half-life in series [4] is 1.7 h; in series [5], 2.2 h. In addition, the values for the Vd in series [4] and in series [5] were 2.6 L/kg and 1.2 L/kg, respectively. For the same compound, the “Rat F” value in series [5] was 72%.

On to `CCOc1ccccc1Cn1nc(COC(C)(C)C(=O)O)cc1-c1cc(OC)cc(OC)c1` [Example 211], for which the concentration for half-maximal inhibition (IC50) was 20000 nM against MCT1 and 2.4 nM against MCT4. In addition, the half-life at 2 µM in series [1] (setting [6]) worked out at 1.22 h; in series [2] (setting [7]) it was 0.817 h; in series [3] (setting [8]), 3 h. In addition, in series [1], the “Rat microsome % 60 min” value was determined as 57%. Further, the “Mouse microsome % 60 min” value in series [2] was determined as 43%. The “Human microsome % 60 min” value in series [3] stood at 78%. Further, in series [4], the “Mouse F” value was determined as 57%. The half-life in series [4] was 1.9 h; in series [5], 3.6 h. For the same compound, the Vd was 1.5 L/kg in series [4] and 3.6 L/kg in series [5]. Further, the “Rat F” value in series [5] is 55%.

`CC[C@@](C)(OCc1cc(-c2cc(OC)cc(OC)c2)n(-c2ccccc2Cl)n1)C(=O)O` [Example 222, (2R)-2-([1-(2-Chlorophenyl)-5-(3,5-dimethoxyphenyl)-1H-pyrazol-3-yl]-methoxy)-2-methylbutanoic acid]: the IC50 against MCT1 amounted to 94000 nM; on MCT4 it was 3.9 nM. The half-life at 2 µM in series [1] (setting [6]) was 5.58 h; in series [2] (setting [7]), 16.7 h. Moreover, the “Rat microsome % 60 min” value in series [1] came out at 90%. Also, in series [2], the “Mouse microsome % 60 min” value is 94%. In series [3] (setting [8]), the “Human microsome t1/2, min” value is recorded as “∞”. Also, the “Human microsome % 60 min” value in series [3] is given as 110%.

With `Cn1ncc2ccc(-c3cc(COC(C)(C)C(=O)O)nn3Cc3ccccc3Cl)cc21` [Example 226, 2-([1-[(2-Chlorophenyl)methyl]-5-(1-methyl-1H-indazol-6-yl)-1H-pyrazol-3-yl]-methoxy)-2-methylpropanoic acid], the results for the half-inhibitory concentration (IC50) at MCT1 and at MCT4 were 54000 nM and 15 nM, respectively. In addition, the values for the half-life at 2 µM in series [1] (setting [6]), in series [2] (setting [7]) and in series [3] (setting [8]) were 7.58 h, 11.4 h and 7.8 h, respectively. In addition, the “Rat microsome % 60 min” value in series [1] is 88%. Moreover, the “Mouse microsome % 60 min” value in series [2] is 95%. Further, the “Human microsome % 60 min” value in series [3] worked out at 95%.

On to `CCn1ncc2ccc(-c3cc(COC(C)(C)C(=O)O)nn3-c3ccccc3N3CCC3)cc21` [Example 228, 2-([1-(2-(Azetidin-1-yl)phenyl]-5-(1-ethyl-1H-indazol-6-yl)-1H-pyrazol-3-yl]-methoxy)-2-methylpropanoic acid], for which the IC50 against MCT1 is 31000 nM; at MCT4 it was 5.9 nM. Moreover, the half-life at 2 µM in series [1] (setting [6]) amounted to 6.58 h; in series [2] (setting [7]), 12.8 h; in series [3] (setting [8]), 2.17 h. The “Rat microsome % 60 min” value in series [1] amounted to 91%. Besides, the “Mouse microsome % 60 min” value in series [2] is on record as 96%. Further, in series [3], the “Human microsome % 60 min” value is 71%. Moreover, the “Mouse F” value in series [4] is 100%. For the same compound, the figures for the half-life in series [4] and in series [5] were 4.4 h and 3.1 h, respectively. The values for the Vd in series [4] and in series [5] were 2 L/kg and 1.3 L/kg, respectively. In addition, in series [5], the “Rat F” value is 94%.

Consider `CCCn1ncc2ccc(-c3cc(COC(C)(C)C(=O)O)nn3-c3ccccc3N3CCC3)cc21` [Example 246, 2-([1-[2-(Azetidin-1-yl)phenyl]-5-(1-propyl-1H-indazol-6-yl)-1H-pyrazol-3-yl]methoxy)-2-methylpropanoic acid], for which the IC50 against MCT1 turned out to be 32000 nM; at MCT4, 3.1 nM. The figures for the half-life at 2 µM in series [1] (setting [6]), in series [2] (setting [7]) and in series [3] (setting [8]) were 1.82 h, 2.8 h and 1.58 h, respectively. Besides, in series [1], the “Rat microsome % 60 min” value amounted to 69%. Also, in series [2], the “Mouse microsome % 60 min” value came out at 81%. For the same compound, the “Human microsome % 60 min” value in series [3] worked out at 65%. In addition, the “Rat F” value in series [5] is 52%. In addition, the half-life in series [5] was 4.7 h. Further, the Vd in series [5] was determined as 1.7 L/kg.

As for `COc1cc(OC)cc(-c2cc(COC(C)(C)C(=O)O)nn2-c2ccccc2N2CCC2)c1` [Example 251, 2-((1-(2-(Azetidin-1-yl)phenyl)-5-(3,5-dimethoxyphenyl)-1H-pyrazol-3-yl)methoxy)-2-methylpropanoic acid], the IC50 at MCT1 turned out to be 98000 nM; against MCT4, 5.6 nM. Moreover, the half-life at 2 µM in series [1] (setting [6]) worked out at 3.02 h; in series [2] (setting [7]) it was 1.55 h; in series [3] (setting [8]), 3.02 h. Also, in series [1], the “Rat microsome % 60 min” value is 83%. The “Mouse microsome % 60 min” value in series [2] was 63%. Besides, in series [3], the “Human microsome % 60 min” value was 77%. Moreover, in series [5], the “Rat F” value was 98%. In series [5], the half-life was 3 h. Further, in series [5], the Vd came out at 0.38 L/kg.

`CCn1ncc2ccc(-c3cc(CO[C@@](C)(CC)C(=O)O)nn3Cc3ccccc3Cl)cc21` [Example 257, (S)-2-((1-(2-chlorobenzyl)-5-(1-ethyl-1H-indazol-6-yl)-1H-pyrazol-3-yl)methoxy)-2-methylbutanoic acid] registered an IC50 against MCT1 of 19000 nM. For the same compound, the “Rat microsome t1/2, min” value in series [1] (setting [6]) is “∞”. In addition, the “Rat microsome % 60 min” value in series [1] stood at 103%. For the same compound, the “Mouse microsome t1/2, min” value in series [2] (setting [7]) is given as “∞”. The “Mouse microsome % 60 min” value in series [2] came to 102%. In series [3] (setting [8]), the half-life at 2 µM is 21.6 h. Moreover, in series [3], the “Human microsome % 60 min” value was found to be 96%. Besides, in series [4], the “Mouse F” value is 76%, the half-life was 3.6 h and the Vd was found to be 2.8 L/kg. On MCT4, this compound yielded an IC50 of 0.35 nM. In series [5], the “Rat F” value was determined as 76%, the half-life was 2.7 h and the Vd worked out at 1.6 L/kg.

Consider `CCn1ncc2ccc(-c3cc(CO[C@](C)(CC)C(=O)O)nn3-c3ccccc3N3CCC3)cc21` [Example 269, (2R)-2-([1-[2-(Azetidin-1-yl)phenyl]-5-(1-ethyl-1H-indazol-6-yl)-1H-pyrazol-3-yl]methoxy)-2-methylbutanoic acid], for which the half-maximal inhibitory concentration (IC50) against MCT1 came to 58000 nM. In series [4], the “Mouse F” value is reported as 100%, the half-life was 3.3 h and the Vd was found to be 1.3 L/kg. This compound had an IC50 at MCT4 of 1 nM.

In general, IC50 refers to the concentration at which inhibition is half-maximal. Low values mean inhibition by little substance, high ones a need for much substance.
